The test system of assay [1] is AMP-activated protein kinase (AMPK). Nature of the assay: p-AMPK expression level in L6 cell line by Western blot. In kind it is cell-based. The conditions noted are these: L6 cells, 2 hours compound treatment. On the procedure:
(§1) Evaluation of p-AMPK and p-ACC expression level in L6 cell line by Western-Blot
(§2) This method evaluates the changes of AMP-activated protein kinase (AMPK) and ACC (acetyl-CoA carboxylase) activity by small molecular modulators through detecting the level of p-AMPK and p-ACC proteins in L6 cells using Western blot.
(§3) L6 cells are maintained in DMEM medium supplemented with 10% FBS in 10-cm dishes. Prior to compounds treatment, L6 cells are seeded in 12-well-plates at concentration of 3×10^4 cells per well. After 24 hours of incubation in 12-well plates, L6 cells are differentiated by replacing the 10% FBS-DMEM medium with 2% FBS-DMEM. Differentiation usually takes 5 days, during which the culture medium is changed every 2 days.
(§4) The compound concentrations typically range from 32 μM to 0.5 μM with 2-fold dilution in 2 ml DMEM and 7 doses. The final DMSO concentration is 0.4%. Berberine is used as a positive control at concentration of 16 μM. Before compound treatment, starve L6 cells for 2 hours by replacing the medium with DMEM, and then gently aspirate the media from each well. Add the compounds into the plates and incubate at 37 degree 5% CO2 for 2 hours.
(§5) Prepare lysis buffer (RIPA buffer with protease-inhibitors and phosphorate-inhibitors) and place it on ice. After two hour's compound treatment, aspirate the medium from 12-well plates, add 70 ul lysis buffer to each well and keep the plates on ice for 5 min. Then scrape the cell lysate off the plates and transfer it to 1.5 ml eppendorf tubes. Keep the tube on ice for more 10 min, centrifugate the lysate at 13000 rpm, 4 degrees for 15 min and transfer the supernatant to clean tubes.
(§6) Determine protein concentration for each sample using Quickstart Bradford protein quantitation kit. Mix 20 ug protein sample with 4 times loading buffer, heat them at 100° C. for 5 min, store the sample in −80° C. or perform Western blot assay directly. For Western blot assay, load 20 ug samples and 10 ul Pre-stained Protein Maker into 4-12% SDS-PAGE gradient gel. Run the samples at 100 V in the stacking gel and at 120 V in resolving gel until the Bromophenol dye reaches the bottom. Transfer the electrophoresed proteins to a PVDF membrane using Bio-Rad's Transblot for 120 min at 300 mA. Following the completion of transfer, the membrane is blocked with 5% non-fat milk for 2 hours at room temperature before incubated with primary antibody (p-AMPK and p-ACC) at 4° C. overnight. On the next day wash the membrane twice with TBST, add secondary antibody and incubate for 1 hour at room temperature. Wash the membrane twice with TBST. Develop p-AMPK and p-ACC protein expression level on the film in dark room with Amersham ECL plus kit. The bands of each sample are quantitated by Bio-Rad system, The AC1.3 value is analyzed using Prism 5.0.
On the technique in general: Immunoblotting shows a protein as a band on a membrane.

Assay [2] concerns ACC (acetyl-CoA carboxylase). Nature of the assay: p-ACC expression level in L6 cell line by Western blot. The format is cell-based. The conditions noted are these: Rattus norvegicus, L6 cells, 2 hours compound treatment, read-out: Activity AC1.3 (ACCp). Here is the method:
as §1, §2, §3, §4, §5, §6

As to `Cc1ccccc1N1CCN(c2cccc(C3CC(C)(C)c4cc(F)cc(C(=O)NS(=O)(=O)C5CC5)c4N3)c2)CC1` (centres unmarked) [Example 58, Cyclopropanesulfonic acid {6-fluoro-4,4-dimethyl-2-[3-(4-o-tolyl-piperazin-1-yl)-phenyl]-1,2,3,4-tetrahydro-quinoline-8-carbonyl}-amide], the “Activity AC1.3 (AMPKp)” value in assay [1] is 0.46 µM. Also, in assay [2], the EC (1.3-fold) amounted to 0.36 µM.
For `CC1(C)CC(c2cc(F)cc(N3CCOCC3)c2)Nc2ccc(C(=O)NS(C)(=O)=O)cc21` (centres unmarked) [Example 4, N-[2-(3-fluoro-5-morpholin-4-yl-phenyl)-4,4-dimethyl-1,2,3,4-tetrahydro-quinoline-6-carbonyl]-methanesulfonamide] the same measures were 6.76 µM and 6.23 µM.
As to `CC1(C)CC(c2cccc(N3CCOCC3)c2)Nc2ccc(S(=O)(=O)NC3CCC3)cc21` (centres unmarked) [Example 15, 4,4-Dimethyl-2-(3-morpholin-4-yl-phenyl)-1,2,3,4-tetrahydro-quinoline-6-sulfonic acid cyclobutylamide], the “Activity AC1.3 (AMPKp)” value in assay [1] turned out to be 0.1 µM. Besides, the EC (1.3-fold) in assay [2] is 0.1 µM.
For `CC1(C)CC(c2cccc(N3CCN(c4ccccc4F)CC3)c2)Nc2c(C(=O)NS(C)(=O)=O)cc(F)cc21` (centres unmarked) [Example 59, N-(6-fluoro-2-{3-[4-(2-fluoro-phenyl)-piperazin-1-yl]-phenyl}-4,4-dimethyl-1,2,3,4-tetrahydro-quinoline-8-carbonyl)-methanesulfonamide], in assay [1], the “Activity AC1.3 (AMPKp)” value was determined as 7.73 µM. The EC (1.3-fold) in assay [2] is 0.74 µM.
Taken in the same sequence, the figures for `CC(C)(C)c1ccc(-c2cncc(C3CC(C)(C)c4cc(C(=O)NS(=O)(=O)C5CC5)ccc4N3)c2)cc1` (centres unmarked) [Example 74, Cyclopropanesulfonic acid {2-[5-(4-tert-butyl-phenyl)-pyridin-3-yl]-4,4-dimethyl-1,2,3,4-tetrahydro-quinoline-6-carbonyl}-amide] were 0.06 µM and 1.67 µM.
For `CC1(C)CC(c2cccc(N3CCN(c4ccccc4)CC3)c2)Nc2c(C(=O)NS(=O)(=O)C3CC3)cccc21` (centres unmarked) [Example 76, Cyclopropanesulfonic acid {4,4-dimethyl-2-[3-(4-phenyl-piperazin-1-yl)-phenyl]-1,2,3,4-tetrahydro-quinoline-8-carbonyl}-amide] the same measures were 3.12 µM and 0.57 µM.
Taken in the same sequence, the figures for `Cc1ccc(N2CCN(c3cccc(C4CC(C)(C)c5cc(C(=O)NS(C)(=O)=O)ccc5N4)c3)CC2)c(C)c1` (centres unmarked) [Example 53, N-(2-{3-[4-(2,4-dimethyl-phenyl)-piperazin-1-yl]-phenyl}-4,4-dimethyl-1,2,3,4-tetrahydro-quinoline-6-carbonyl)-methanesulfonamide] were 4.79 µM and 11.7 µM.
In the case of `CC1(C)CC(c2cccnc2)Nc2ccc(C(=O)NS(C)(=O)=O)cc21` (centres unmarked) [Example 18, N-(4,4-dimethyl-2-pyridin-3-yl-1,2,3,4-tetrahydro-quinoline-6-carbonyl)-methanesulfonamide], the “Activity AC1.3 (AMPKp)” value in assay [1] stood at 7.98 µM. For the same molecule, the EC (1.3-fold) in assay [2] turned out to be 20 µM.
Turning to `CC1(C)CC(c2cc(F)cc(N3CCOCC3)c2)Nc2ccc(S(=O)(=O)NC3CCC3)cc21` (centres unmarked) [Example 16, 2-(3-Fluoro-5-morpholin-4-yl-phenyl)-4,4-dimethyl-1,2,3,4-tetrahydro-quinoline-6-sulfonic acid cyclobutylamide], in assay [1], the “Activity AC1.3 (AMPKp)” value was found to be 19.4 µM. Further, the EC (1.3-fold) in assay [2] is 3.21 µM.
For the molecule `CC1(C)CC(c2cccc(-c3ccccc3O)c2)Nc2ccc(S(=O)(=O)NC3CCC3)cc21` (centres unmarked) [Example 17, 2-(2′-Hydroxy-biphenyl-3-yl)-4,4-dimethyl-1,2,3,4-tetrahydro-quinoline-6-sulfonic acid cyclobutylamide], the “Activity AC1.3 (AMPKp)” value in assay [1] is 0.41 µM. Moreover, the EC (1.3-fold) in assay [2] is 0.05 µM.
`CC(C)(C)c1ccc(-c2cccc(C3CC(C)(C)c4cc(C(=O)NS(=O)(=O)C5CC5)ccc4N3)c2)cc1` (centres unmarked) [Example 40, Cyclopropanesulfonic acid [2-(4′-tert-butyl-biphenyl-3-yl)-4,4-dimethyl-1,2,3,4-tetrahydro-quinoline-6-carbonyl]-amide]: the “Activity AC1.3 (AMPKp)” value in assay [1] stood at 6.6 µM. Also, the EC (1.3-fold) in assay [2] was found to be 6.17 µM.
Taken in the same sequence, the figures for `Cc1ccc(N2CCN(c3cncc(C4CC(C)(C)c5cc(C(=O)NS(C)(=O)=O)ccc5N4)c3)CC2)c(C)c1` (centres unmarked) [Example 49, N-(2-{5-[4-(2,4-dimethyl-phenyl)-piperazin-1-yl]-pyridin-3-yl}-4,4-dimethyl-1,2,3,4-tetrahydro-quinoline-6-carbonyl)-methanesulfonamide] were 0.15 µM and 6.93 µM.
For `CC1(C)CC(c2cccc(N3CCCC3)c2)Nc2c(C(=O)NS(=O)(=O)C3CC3)cc(Cl)cc21` (centres unmarked) [Example 72, Cyclopropanesulfonic acid [6-chloro-4,4-dimethyl-2-(3-pyrrolidin-1-yl-phenyl)-1,2,3,4-tetrahydro-quinoline-8-carbonyl]-amide] the same measures were 0.14 µM and 3.49 µM.
Taken in the same sequence, the figures for `Cc1ccccc1N1CCN(c2cccc(C3CC(C)(C)c4cc(F)cc(C(=O)NS(C)(=O)=O)c4N3)c2)CC1` (centres unmarked) [Example 57, N-{6-fluoro-4,4-dimethyl-2-[3-(4-o-tolyl-piperazin-1-yl)-phenyl]-1,2,3,4-tetrahydro-quinoline-8-carbonyl}-methanesulfonamide] were 0.85 µM and 0.61 µM.
As for `CC1(C)CC(c2cccc(N3CCOCC3)c2)Nc2c(C(=O)NS(C)(=O)=O)cccc21` (centres unmarked) [Example 10, N-[4,4-dimethyl-2-(3-morpholin-4-yl-phenyl)-1,2,3,4-tetrahydro-quinoline-8-carbonyl]-methanesulfonamide], the EC (1.3-fold) in assay [2] was less than 0.2 µM.
The same measure, in the same setting: the figure for `CN(C(=O)c1ccc2c(c1)C(C)(C)CC(c1cccc(N3CCOCC3)c1)N2)S(=O)(=O)C1CC1` (centres unmarked) [Example 75, Cyclopropanesulfonic acid [4,4-dimethyl-2-(3-morpholin-4-yl-phenyl)-1,2,3,4-tetrahydro-quinoline-6-carbonyl]-methyl-amide] is 0.3 µM.
Take `Cc1ccc(N2CCOCC2)cc1C1CC(C)(C)c2cc(C(=O)NS(C)(=O)=O)ccc2N1` (centres unmarked) [Example 22, N-[4,4-dimethyl-2-(2-methyl-5-morpholin-4-yl-phenyl)-1,2,3,4-tetrahydro-quinoline-6-carbonyl]-methanesulfonamide]: the “Activity AC1.3 (AMPKp)” value in assay [1] came out at 0.02 µM. In assay [2], the EC (1.3-fold) came out at 0.16 µM.
As to `CC1(C)CC(c2cccc(C(F)(F)F)c2)Nc2ccc(C(=O)NS(=O)(=O)C3CC3)cc21` (centres unmarked) [Example 31, Cyclopropanesulfonic acid [4,4-dimethyl-2-(3-trifluoromethyl-phenyl)-1,2,3,4-tetrahydro-quinoline-6-carbonyl]-amide], the EC (1.3-fold) in assay [2] was determined as 2 µM.
As to `CC1(C)CC(c2cccc(N3CCOCC3)c2)Nc2ccc(S(=O)(=O)N3CCOCC3)cc21` (centres unmarked) [Example 12, 4,4-Dimethyl-6-(morpholine-4-sulfonyl)-2-(3-morpholin-4-yl-phenyl)-1,2,3,4-tetrahydro-quinoline], in assay [1], the “Activity AC1.3 (AMPKp)” value was determined as 5.70 µM. Further, the EC (1.3-fold) in assay [2] amounted to 1.86 µM.
With `CC1(C)CC(c2cccc(N3CCOCC3)c2)Nc2cc(C(=O)NS(C)(=O)=O)ccc21` (centres unmarked) [Example 55, N-[4,4-dimethyl-2-(3-morpholin-4-yl-phenyl)-1,2,3,4-tetrahydro-quinoline-7-carbonyl]-methanesulfonamide], the EC (1.3-fold) in assay [2] was 0.7 µM.
On the same count and under the same terms, as for `CC(C)Oc1ccc(-c2cccc(C3CC(C)(C)c4cc(C(=O)NS(=O)(=O)C5CC5)ccc4N3)c2)cc1` (centres unmarked) [Example 46, Cyclopropanesulfonic acid [2-(4′-isopropoxy-biphenyl-3-yl)-4,4-dimethyl-1,2,3,4-tetrahydro-quinoline-6-carbonyl]-amide], the figure is less than 8 µM; as for `CC1(C)CC(c2cccc(C(F)(F)F)c2)Nc2ccc(C(=O)NS(C)(=O)=O)cc21` (centres unmarked) [Example 30, N-[4,4-dimethyl-2-(3-trifluoromethyl-phenyl)-1,2,3,4-tetrahydro-quinoline-6-carbonyl]-methanesulfonamide], 0.002 µM.
